Measured values taken from patent publication US11142526B2, “Spirocycle compounds and methods of making and using same” (H. Lundbeck A/S, priority 2017, dated 2021).

Columns and labels:
[1] = target: MAGL (Homo sapiens (Human), UniProt Q99685); test: In vitro competitive activity-based protein profiling (gel-based, FP-Rh or HT-01 probe); assay type: biochemical; conditions: human PC3; read-out: MAGL Human PC3 (IC50)
Description: In Vitro Competitive Activity-Based Protein Profiling.
Proteomes (human prefrontal cortex or cell membrane fractions) (50 μL, 1.0 mg/mL total protein concentration) were preincubated with varying concentrations of inhibitors at 37° C. After 30 min, FP-Rh or HT-01 (1.0 μL, 50 μM in DMSO) was added and the mixture was incubated for another 30 min at room temperature. Reactions were quenched with SDS loading buffer (15 μL—4×) and run on SDS-PAGE.

[2] = target: T1, MAGL (Mus musculus (Mouse), UniProt O35678); test: Mouse brain proteomes from inhibitor treated mice (oral gavage, brain MAGL activity 4 h after administration); assay type: in vivo; conditions: 5 mg/kg oral gavage
T1 sequence (O35678 whole entry): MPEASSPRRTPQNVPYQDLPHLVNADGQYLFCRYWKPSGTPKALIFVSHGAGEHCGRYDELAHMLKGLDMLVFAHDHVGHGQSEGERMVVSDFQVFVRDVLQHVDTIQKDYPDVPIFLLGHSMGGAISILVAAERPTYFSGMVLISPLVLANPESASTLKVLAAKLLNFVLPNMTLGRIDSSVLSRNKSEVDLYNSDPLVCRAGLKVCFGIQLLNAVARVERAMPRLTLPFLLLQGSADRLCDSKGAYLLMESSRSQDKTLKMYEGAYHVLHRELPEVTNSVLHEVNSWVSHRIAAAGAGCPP
Description: Preparation of Mouse Brain Proteomes from Inhibitor Treated Mice.
Inhibitors were administered to wild-type C57B1/6J by oral gavage in a vehicle of polyethylene glycol.

[3] = target: T1, MAGL; test: In vitro competitive activity-based protein profiling, mouse brain proteome; assay type: biochemical; conditions: for inhibition at 1 µM: mouse; for IC50: mouse brain

Sequence of MAGL (Homo sapiens (Human), UniProt Q99685) (Q99685 whole entry): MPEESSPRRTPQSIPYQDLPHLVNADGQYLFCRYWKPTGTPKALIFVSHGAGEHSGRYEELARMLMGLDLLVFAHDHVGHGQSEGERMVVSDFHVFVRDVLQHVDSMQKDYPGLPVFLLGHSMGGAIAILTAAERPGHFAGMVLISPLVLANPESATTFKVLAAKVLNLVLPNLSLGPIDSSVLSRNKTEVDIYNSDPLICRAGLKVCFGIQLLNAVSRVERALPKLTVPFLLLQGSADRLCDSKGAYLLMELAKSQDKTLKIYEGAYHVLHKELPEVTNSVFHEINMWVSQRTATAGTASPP

Row | SMILES | IC50 [1] | MAGL % Inhibition at 5 mg/kg (Mouse) [2] | inhibition at 1 µM [3] | IC50 [3]
1 | O=C(OC(C(F)(F)F)C(F)(F)F)N1CCC2(CCCN2Cc2cc(-c3ccc(F)cc3)on2)CC1 [Example 39, 1,1,1,3,3,3-Hexafluoropropan-2-yl 1-((5-(4-fluorophenyl)isoxazol-3-yl)methyl)-1,8-diazaspiro[4.5]decane-8-carboxylate] | < 100 nM | ### (% inhibition is greater than or equal to 75%) | > 75% | < 100 nM
2 | CC(C)n1cc(CN2CCCC23CCN(C(=O)OC(C(F)(F)F)C(F)(F)F)CC3)c(-c2ccccc2F)n1 [Example 221, 1,1,1,3,3,3-Hexafluoropropan-2-yl 1-((3-(2-fluorophenyl)-1-isopropyl-1H-pyrazol-4-yl)methyl)-1,8-diazaspiro[4.5] decane-8-carboxylate] | < 100 nM | ### (% inhibition is greater than or equal to 75%) | > 75% | < 100 nM
